Source: ChEMBL document CHEMBL1127307, “Structural evolution and pharmacology of a novel series of triacid angiotensin II receptor antagonists” (J Med Chem, 1994)
Activity calls are given as the source filed them. The calls are words filed in the database; no cut-off is given here.

Experiments:
[1] = target: T1, Type-1 angiotensin II receptor (Oryctolagus cuniculus) (UniProt P34976); test: In vitro antagonistic activity against Ang II (AT1) receptor was determined in rabbit aorta; format: functional, tissue-based
T1 sequence (whole entry): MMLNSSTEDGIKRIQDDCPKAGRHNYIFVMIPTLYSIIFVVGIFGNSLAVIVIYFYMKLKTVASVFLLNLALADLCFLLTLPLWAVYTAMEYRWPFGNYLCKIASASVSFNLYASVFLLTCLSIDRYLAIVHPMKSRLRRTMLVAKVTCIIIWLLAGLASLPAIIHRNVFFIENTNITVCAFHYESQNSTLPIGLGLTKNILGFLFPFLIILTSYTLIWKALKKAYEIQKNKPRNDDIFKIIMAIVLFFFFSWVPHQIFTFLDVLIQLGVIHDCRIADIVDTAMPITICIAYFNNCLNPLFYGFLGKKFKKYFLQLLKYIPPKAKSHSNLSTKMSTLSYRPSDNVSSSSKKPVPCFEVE

[2] = target: T2, Type-1 angiotensin II receptor B (Rattus norvegicus) (UniProt P29089); test: In vivo pressor response to Ang II (AT1) receptor in pithed rats at an oral dose of 10 mg/kg; format: functional, organism-based; design: dose 10 mg/kg
T2 sequence (whole entry): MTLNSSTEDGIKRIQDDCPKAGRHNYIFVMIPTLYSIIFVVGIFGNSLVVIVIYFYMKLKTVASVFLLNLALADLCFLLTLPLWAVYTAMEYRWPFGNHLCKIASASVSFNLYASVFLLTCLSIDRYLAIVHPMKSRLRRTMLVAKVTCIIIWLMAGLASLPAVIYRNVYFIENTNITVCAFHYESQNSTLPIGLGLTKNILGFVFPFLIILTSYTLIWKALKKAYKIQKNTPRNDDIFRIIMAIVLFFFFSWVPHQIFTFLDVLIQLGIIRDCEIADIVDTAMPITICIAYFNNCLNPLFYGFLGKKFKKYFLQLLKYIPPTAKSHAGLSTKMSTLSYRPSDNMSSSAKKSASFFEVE

[3] = target: T2, Type-1 angiotensin II receptor B (Rattus norvegicus); test: In vivo pressor response to Ang II (AT1) receptor in pithed rats at an oral dose of 10 mg/kg; Not active; format: functional, organism-based; design: dose 10 mg/kg

Row | Kb [1] [nM] | Kb [2] [mg/kg] | Kb [3] | SMILES
1 | 0.6 | 6.5 |  | CCCCCC[C@H](C(=O)N1C[C@@H](Oc2ccc(C(C)(C)C(=O)O)cc2)C[C@H]1C(=O)O)n1cnc(NC(=O)c2ccccc2S(=O)(=O)O)c1
2 | 4.1 |  |  | CCCCCC[C@H](C(=O)N1C[C@@H](Oc2ccc(OC(C)C)cc2)C[C@H]1C(=O)O)n1cnc(NC(=O)c2ccccc2S(=O)(=O)O)c1
3 | 10 |  |  | CCCCCC[C@H](C(=O)N1C[C@@H](Oc2ccc(-c3ccccc3)cc2)C[C@H]1C(=O)O)n1cnc(NC(=O)c2ccccc2S(=O)(=O)O)c1
4 | 0.4 | 8.3 |  | CCCCCC[C@H](C(=O)N1C[C@@H](Oc2ccc(CCP(=O)(O)O)cc2)C[C@H]1C(=O)O)n1cnc(NC(=O)c2ccccc2S(=O)(=O)O)c1
5 | 1.1 |  | inactive | CCCCCC[C@H](C(=O)N1C[C@@H](Oc2ccc(C(=O)O)cc2)C[C@H]1C(=O)O)n1cnc(NC(=O)c2ccccc2S(=O)(=O)O)c1
6 | 126 |  |  | CCCCCC[C@H](C(=O)N1C[C@@H](Oc2ccc(C(C)(C)C)cc2)C[C@H]1C(=O)O)n1cnc(NC(=O)c2ccccc2S(=O)(=O)O)c1
7 | 0.9 | 1.8 |  | CCCCCC[C@H](C(=O)N1C[C@@H](Oc2ccc(CP(=O)(O)O)cc2)C[C@H]1C(=O)O)n1cnc(NC(=O)c2ccccc2S(=O)(=O)O)c1
8 | 3 |  |  | CCCCCC[C@H](C(=O)N1C[C@@H](Oc2ccc(F)cc2)C[C@H]1C(=O)O)n1cnc(NC(=O)c2ccccc2S(=O)(=O)O)c1
9 | 0.27 | 2.8 |  | CCCCCC[C@H](C(=O)N1C[C@@H](Oc2ccc(CC(=O)O)cc2)C[C@H]1C(=O)O)n1cnc(NC(=O)c2ccccc2S(=O)(=O)O)c1
10 | 501 |  | inactive | CCCCCC[C@H](C(=O)N1C[C@@H](Oc2ccccc2CC(=O)O)C[C@H]1C(=O)O)n1cnc(NC(=O)c2ccccc2S(=O)(=O)O)c1
11 | 34.7 |  |  | CCCCCC[C@H](C(=O)N1C[C@@H](Oc2ccc(C(F)(F)F)cc2)C[C@H]1C(=O)O)n1cnc(NC(=O)c2ccccc2S(=O)(=O)O)c1
12 | 1.09 |  |  | CCCCCC[C@H](C(=O)N1C[C@@H](Oc2ccc(C)cc2)C[C@H]1C(=O)O)n1cnc(NC(=O)c2ccccc2S(=O)(=O)O)c1
13 | 3.2 |  |  | CCCCCC[C@@H](C(=O)N1C[C@@H](Oc2ccccc2)C[C@H]1C(=O)O)n1cnc(NC(=O)c2ccccc2S(=O)(=O)O)c1
14 | 25.1 |  |  | CCCCCC[C@H](C(=O)N1C[C@@H](Oc2ccc(C(C)C)cc2)C[C@H]1C(=O)O)n1cnc(NC(=O)c2ccccc2S(=O)(=O)O)c1
15 | 0.6 |  | inactive | CCCCCC[C@H](C(=O)N1C[C@@H](Oc2ccc(CC3N=NN=N3)cc2)C[C@H]1C(=O)O)n1cnc(NC(=O)c2ccccc2S(=O)(=O)O)c1
16 | 5.2 |  |  | CCCCCC[C@H](C(=O)N1C[C@@H](Oc2ccc(OC(C)(C)C)cc2)C[C@H]1C(=O)O)n1cnc(NC(=O)c2ccccc2S(=O)(=O)O)c1
17 | 15.8 | 10.6 |  | CCCCCC[C@H](C(=O)N1C[C@@H](Oc2cccc(CC(=O)O)c2)C[C@H]1C(=O)O)n1cnc(NC(=O)c2ccccc2S(=O)(=O)O)c1
18 | 0.8 |  |  | CCCCCC[C@H](C(=O)N1C[C@@H](Oc2ccccc2)C[C@H]1C(=O)O)n1cnc(NC(=O)c2ccccc2S(=O)(=O)O)c1
19 | 0.63 |  |  | CCCCCC[C@H](C(=O)N1C[C@@H](Oc2ccc3occc3c2)C[C@H]1C(=O)O)n1cnc(NC(=O)c2ccccc2S(=O)(=O)O)c1
20 | 0.44 |  |  | CCCCCC[C@H](C(=O)N1C[C@@H](Oc2ccc(OC)cc2)C[C@H]1C(=O)O)n1cnc(NC(=O)c2ccccc2S(=O)(=O)O)c1
21 | 0.6 |  | inactive | CCCCCC[C@H](C(=O)N1C[C@@H](Oc2ccc(CCC(=O)O)cc2)C[C@H]1C(=O)O)n1cnc(NC(=O)c2ccccc2S(=O)(=O)O)c1

The next lines start with the molecule.

Row | SMILES | Kb [1] [nM] | Kb [2] [mg/kg] | Kb [3]
22 | CCCCCC[C@H](C(=O)N1C[C@@H](Oc2ccc3sccc3c2)C[C@H]1C(=O)O)n1cnc(NC(=O)c2ccccc2S(=O)(=O)O)c1 | 3.6 |  | 
23 | CCCCCC[C@H](C(=O)N1C[C@@H](Oc2cccc3cnccc23)C[C@H]1C(=O)O)n1cnc(NC(=O)c2ccccc2S(=O)(=O)O)c1 | 3.3 |  | 
24 | CCCCCCC(C(=O)O)n1cnc(NC(=O)c2cccc(O)c2C(=O)O)c1 (centres undefined) | 124 |  | 
25 | CCCCCC[C@H](C(=O)N1C[C@@H](Oc2ccc3c(c2)OCO3)C[C@H]1C(=O)O)n1cnc(NC(=O)c2ccccc2S(=O)(=O)O)c1 | 0.92 |  | 
26 | CCCCCC[C@H](C(=O)N1C[C@@H](Oc2ccno2)C[C@H]1C(=O)O)n1cnc(NC(=O)c2ccccc2S(=O)(=O)O)c1 | 94.6 |  | 
27 | CCCCCC[C@H](C(=O)N1C[C@@H](Oc2cccc3ccccc23)C[C@H]1C(=O)O)n1cnc(NC(=O)c2ccccc2S(=O)(=O)O)c1 | 4040 |  | 
28 | CCCCCC[C@@H](C(=O)N1CCC[C@H]1C(=O)O)n1cnc(NC(=O)c2ccccc2S(=O)(=O)O)c1 | 461 |  | 
29 | CCCCCC[C@H](C(=O)N1C[C@@H](Oc2cccc(OC)c2)C[C@H]1C(=O)O)n1cnc(NC(=O)c2ccccc2S(=O)(=O)O)c1 | 11.6 |  | 
30 | CCCCCCC(C(=O)O)n1cnc(NC(=O)c2ccccc2-c2nn[nH]n2)c1 (centres undefined) | 159 |  | 
31 | CCCCCC[C@H](C(=O)N1C[C@@H](Oc2cccnc2)C[C@H]1C(=O)O)n1cnc(NC(=O)c2ccccc2S(=O)(=O)O)c1 | 148 |  | 
32 | CCCCCC[C@H](C(=O)N1CCC[C@H]1C(=O)O)n1cnc(NC(=O)c2ccccc2S(=O)(=O)O)c1 | 50.9 |  | 
33 | CCCCCCC(C(=O)O)n1cnc(NC(=O)c2ccccc2C(=O)O)c1 (centres undefined) | 684 |  | 
34 | CCCCCC[C@H](C(=O)N1C[C@@H](Oc2ccccc2OC)C[C@H]1C(=O)O)n1cnc(NC(=O)c2ccccc2S(=O)(=O)O)c1 | > 30 |  | 
35 | CCCCCCC(C(=O)O)n1cnc(NC(=O)c2ccccc2)c1 (centres undefined) | 12500 |  | 
36 | CCCCCC[C@H](C(=O)N1C[C@@H](Oc2ccc(OC)c(OC)c2)C[C@H]1C(=O)O)n1cnc(NC(=O)c2ccccc2S(=O)(=O)O)c1 | 15.8 |  | 
37 | CCCCCCC(C(=O)O)n1cnc(NC(=O)c2ccccc2S(=O)(=O)O)c1 (centres undefined) | 81.7 |  | 
38 | CCCCCC[C@H](C(=O)N1C[C@@H](O)C[C@H]1C(=O)O)n1cnc(NC(=O)c2ccccc2S(=O)(=O)O)c1 | 25.8 |  | 
39 | CCCCCC[C@H](C(=O)N1C[C@@H](Oc2ccc3ccccc3c2)C[C@H]1C(=O)O)n1cnc(NC(=O)c2ccccc2S(=O)(=O)O)c1 | 4.1 |  | 
40 | CCCCC(C(=O)O)n1cnc(C(=O)Nc2ccccc2)c1 (centres undefined) | 71.5 |  | 
